This note sets out measurements from US9193687B2 (priority 2007, dated 2015).

Where “and” joins values, the source holds several entries; their conditions need not be identical. Equal entries are not always repeated.

Data set [1] concerns Human colon carcinoma HCT-116 cells. Nature of the data set: cells. The settings on record: HCT-116, 72 h, read-out: Cytotoxicity IC50, HCT-116.
Data set [2] relates to Human mammary carcinoma (MX-1) tumor cells. Nature of the data set: In vitro cytotoxicity, SRB assay, 72-hr incubation. The settings on record: Homo sapiens, 72 h, read-out: Cytotoxicity IC50, MX-1.
Data set [3] concerns CCRF-CEM/Taxol. Briefly: In vitro cytotoxicity, XTT assay, taxol-resistant subline. The settings on record: Homo sapiens, CCRF-CEM, 72 h, read-out: Cytotoxicity IC50, CCRF-CEM/Taxol.
Data set [4] relates to CCRF-CEM human lymphoblastic leukemia cells. Briefly: cells. The settings on record: 72 h, read-out: Cytotoxicity IC50, CCRF-CEM.
Data set [5] has as its system human mammary carcinoma MX-1 xenograft. Briefly: Antitumor therapeutic effect against MX-1 xenograft in nude mice. The data set is classed as in vivo. The settings on record: for Remark (dose tolerability): BO-1053 70 mg/kg Q2Dx5, BO-1063 and BO-1065 100 mg/kg QDx3, i.v.; for Therapeutic effect: complete tumor remission (CR), mice with CR/total and day / Maximal body-weight loss (%) / Therapeutic effect: tumor relapse: i.v. injection; for Therapeutic effect: complete tumor remission (CR), mice with CR/total and day: treatment from Day 8, dose and schedule per compound as in Table 3 (30-150 mg/kg); for Maximal body-weight loss (%) / Therapeutic effect: tumor relapse: dose and schedule per compound as in Table 3. The procedure: Athymic nude mice bearing the nu/nu gene were obtained from NCI, Frederick, Md. and used for all human tumor xenografts. Male nude mice 6 weeks or older weighing 20-24 g or more were used. Compounds were administered via the tail vein for i.v. injection or infusion as described previously.^64 A typical formulation for chemotherapeutic studies for each drug was dissolved in DSMO to make a 25 mg/ml fresh solution, 0.4 ml of this solution was mixed with 0.3 ml of Tween 80, plus 1.3 ml to make 2 ml of 5 mg/ml solution. Bolus injection volume was 0.1-0.2 ml per mouse. Tumor volume was assessed by measuring length×width×height (or width) by using a caliper. For tumor-bearing nude mice during the course of the experiment, the body weight refers to total weight minus the weight of the tumor. All animal studies were conducted in accordance with the guidelines for the National Institute of Health Guide for the Care and Use of Animals and the protocol approved by the Institutional Animal Care and Use Committee.
The therapeutic effects of a drug against human tumor xenografts in nude mice, under the optimal therapeutic conditions but without any lethality due to drug toxicity, the following degrees of therapeutic effects are defined and calculated by the following formula: […]
where • T0 is the initial tumor size (in mm^3) at beginning of drug treatment; • Tc is tumor size of untreated control group on a given date; and • Tx is tumor size of the drug treated group on a given date.
[formula] • Tumor disappearance (complete remission or CR) is defined by the effect where • [Tx=0] for a period of time (in days) for a proportion of animals (NCR/N), where • N is the total number of animals in the group, and NCR is the number of mice in the group that achieved CR. • Tumor relapse is quantitatively calculated by • [The Day tumor relapsed (Drelp)—The Day CR achieved (DCR)] (Eq. 3) for a proportion of animals (Nrelp/N) where N is the total number of animals in the group, and Nrelp is the number of the mice in the group that relapsed. • The log cell kill (LCK) of the tumor tissue after a given chemotherapy that reached CR is estimated by: LCK=log [2^(Tumor remission in days/Tumor doubling time in days)] (Eq. 4)
Athymic nude mice bearing the nu/nu gene were used for human breast tumor MX-1 xenograft (FIGS. 3 and 4) and human brain glioma U87 GM xenograft (FIG. 5). Nude mice were obtained from National Cancer Institute, Frederick, Md. Male mice 6 weeks old or older weighing 22 g or more were used for experiments with subcutaneous tumor inoculation as described previously.^67 Drug was administrated via the tail vein by iv injection. Tumor volumes were assessed by measuring length×width×height (or width) by using caliper. Vehicle used was 20 μL DMSO in 180 μL saline. All animal studies were conducted in accordance with the guidelines of the U.S. National Institutes of Health Guide for the Care and Use of Animals and the protocol approved by the Institutional Animal Care and Use Committee.

Regarding `COc1ccc(Nc2c3ccccc3nc3ccccc23)cc1NC(=O)Oc1ccc(N(CCCl)CCCl)cc1` [BO-1172], the IC50 came out at 0.19 µM in data set [1], 0.18 µM in data set [2], 0.16 µM in data set [3] and 0.09 µM in data set [4].

Turning to `Cc1ccc(NC(=O)Nc2ccc(N(CCCl)CCCl)cc2)cc1Nc1c2cccc(C)c2nc2c(C(=O)NCCN(C)C)cccc12` [BO-1053, 9-[5-(3-{4-[bis(2-chloroethyl)amino]phenyl}ureido)-2-methyl-phenylamino]-5-methyl-acridine-4-carboxylic acid (2-dimethylaminoethyl)amide], the IC50 in data set [1] is 0.06 µM; in data set [2], 0.06 µM; in data set [3], 0.18 µM; in data set [4] it was 0.01 µM. Moreover, the “Remark (dose tolerability)” value in data set [5] was “Too high dose”. The “Therapeutic effect: complete tumor remission (CR), mice with CR/total and day” value (from here on “Therapeutic effect … with CR/total and day”) in data set [5] is reported as “achieved complete tumor remission”.

On to `O=C(Nc1ccc(Nc2cc(-c3ccccc3)nc3ccccc23)cc1)Nc1ccc(N(CCCl)CCCl)cc1` [BO-2294], for which, in data set [4], the IC50 is 3.01 µM.

Take `O=C(Nc1ccc(N(CCCl)CCCl)cc1)Nc1cc(CO)cc(Nc2c3ccccc3nc3ccccc23)c1` [BO-1037, 1-[3-(acridin-9-ylamino)-5-hydroxymethylphenyl]-3-{4-[bis(2-chloroethyl)amino]phenyl}urea]: the IC50 in data set [1] was found to be 0.22 µM; in data set [2], 0.37 µM; in data set [3], 17.1 µM; in data set [4], 0.06 µM. The “Therapeutic effect … with CR/total and day” value in data set [5] was “achieved CR in parts of the mice and 2/3 CR on D23, 25”. Also, in data set [5], the “Maximal body-weight loss (%)” value is 12%. The “Therapeutic effect: tumor relapse” value in data set [5] is 2/3 relapsed on D40, 40.

For `O=C(Nc1ccc(N(CCCl)CCCl)cc1)Nc1cccc(Nc2cc(-c3ccccc3)nc3ccccc23)c1` [BO-2295], the IC50 in data set [4] came out at 1.86 µM.

`Cc1ccc(Nc2c3ccccc3nc3c(C)cccc23)cc1NC(=O)Oc1ccc(N(CCCl)CCCl)cc1` [BO-1064, [2-methyl-5-(4-methylacridin-9-ylamino)phenyl]-carbamic acid 4-[bis(2-chloroethyl)amino]phenyl ester]: the IC50 in data set [1] stood at 0.61 µM; in data set [2], 0.29 µM; in data set [3] it was 0.17 µM; in data set [4] it was 0.13 µM. Besides, the “Therapeutic effect … with CR/total and day” value in data set [5] is “achieved complete tumor remission and 1/1 CR on D22”. The “Maximal body-weight loss (%)” value in data set [5] is listed as “Died of”.

In the case of `COc1ccc2nc(C)cc(NNC(=O)Nc3ccc(N(CCCl)CCCl)cc3)c2c1` [BO-1228, N-{4-[bis(2-chloroethyl)amino]phenyl}-2-(6-methoxy-2-methyl-4-quinolinyl)hydrazinecarboxamide], the IC50 was 0.26 µM in data set [1], 0.26 µM in data set [2], 1.54 µM in data set [3] and 0.2 µM in data set [4].

`Cc1cc(NNC(=O)Nc2ccc(N(CCCl)CCCl)cc2)c2cc(N(C)C)ccc2n1` [BO-1242]: the IC50 in data set [1] turned out to be 0.15 µM; in data set [2] it was 0.28 µM; in data set [3], 4.19 µM; in data set [4] it was 0.06 µM.

For the compound `CC(=O)O[C@H]1C(=O)[C@@]2(C)[C@H]([C@H](OC(=O)c3ccccc3)[C@]3(O)C[C@H](OC(=O)[C@H](O)[C@@H](NC(=O)c4ccccc4)c4ccccc4)C(C)=C1C3(C)C)[C@]1(OC(C)=O)CO[C@@H]1C[C@@H]2O` [Taxol, reference compound], the IC50 in data set [2] came out at 0.04 µM; in data set [3], 0.43 µM.

As to `Cc1cccc2c(Nc3cc(CO)cc(NC(=O)Nc4ccc(N(CCCl)CCCl)cc4)c3)c3ccccc3nc12` [BO-1050, 1-{4-[bis(2-chloroethyl)amino]phenyl}-3-[3-hydroxymethyl-5-(4-methylacridin-9-ylamino)phenyl]urea], the IC50 in data set [1] is 0.26 µM. Besides, in data set [2], the IC50 was 0.12 µM. The IC50 in data set [3] is 0.39 µM. Also, in data set [5], the “Therapeutic effect … with CR/total and day” value is “achieved CR in parts of the mice and 2/2 CR on D16, 18”; the “Maximal body-weight loss (%)” value was determined as 9%; the “Therapeutic effect: tumor relapse” value is “No relapse on D26”.

On to `O=C(Nc1ccc(N(CCCl)CCCl)cc1)Nc1c2ccccc2nc2ccccc12` [BO-1034, 1-acridin-9-yl-3-{4-[bis(2-chloroethyl)amino]phenyl}urea], for which the IC50 amounted to 0.9 µM in data set [1], 0.81 µM in data set [2], 0.39 µM in data set [3] and 0.23 µM in data set [4].

`Cc1ccc(NC(=O)Nc2ccc(N(CCCl)CCCl)cc2)cc1Nc1c2ccccc2nc2c(C)cccc12` [BO-1149]: the IC50 in data set [1] was 0.16 µM; in data set [2] it was 0.59 µM; in data set [3], 0.02 µM; in data set [4], 0.01 µM.

With `CCOC(=O)Nc1cc(COC(=O)Oc2ccc(N(CCCl)CCCl)cc2)cc(Nc2c3ccccc3nc3ccccc23)c1` [BO-1065, carbonic acid 3-(acridin-9-yl-amino)-5-ethoxycarbonylaminobenzyl ester 4-[bis(2-chloroethyl)amino]phenyl ester], the values for the IC50 in data set [1], in data set [2] and in data set [3] were 0.64 µM, 0.09 µM and 0.51 µM, respectively. Further, the “Remark (dose tolerability)” value in data set [5] was “Too high dose”.

On to `Cc1ccc(Nc2c3ccccc3nc3ccccc23)cc1NC(=O)Oc1ccc(N(CCCl)CCCl)cc1` [BO-1171], for which the IC50 in data set [1] turned out to be 0.43 µM; in data set [2] it was 0.21 µM; in data set [3], 0.22 µM; in data set [4] it was 0.08 µM.

On to `COc1ccc(Nc2c3ccccc3nc3ccccc23)cc1NC(=O)Nc1ccc(N(CCCl)CCCl)cc1` [BO-1148], for which the IC50 in data set [1] is 0.26 µM; in data set [2] it was 1.2 µM; in data set [3], 0.03 µM; in data set [4] it was 0.01 µM.

Consider `COc1ccc(Nc2c3ccccc3nc3c(C)cccc23)cc1NC(=O)Oc1ccc(N(CCCl)CCCl)cc1` [BO-1213], for which the IC50 in data set [2] was found to be 0.14 µM; in data set [3], 0.03 µM; in data set [4] it was 0.02 µM.

As to `Cc1cc(NC(=O)Nc2ccc(N(CCCl)CCCl)cc2)c2cc(N(C)C)ccc2n1` [BO-1231], the IC50 in data set [1] amounted to 0.3 µM; in data set [2], 0.18 µM; in data set [3] it was 0.31 µM; in data set [4], 0.11 µM.

On to `O=C(NNc1cc(-c2ccccc2)nc2cc3c(cc12)OCO3)Nc1ccc(N(CCCl)CCCl)cc1` [BO-1391], for which the IC50 was 2.02 µM in data set [1], 1.02 µM in data set [2], 0.57 µM in data set [3] and 0.26 µM in data set [4].

In the case of `Cc1cc(NNC(=O)Nc2ccc(N(CCCl)CCCl)cc2)c2ccccc2n1` [BO-1233, N-{4-[bis(2-chloroethyl)amino]phenyl}-2-(2-methyl-4-quinolinyl)hydrazinecarboxamide], the IC50 in data set [1] was 0.38 µM; in data set [2], 0.36 µM; in data set [3], 1.83 µM; in data set [4] it was 0.12 µM.

`CC[C@]1(O)C[C@@H]2CN(CCc3c([nH]c4ccccc34)[C@@](C(=O)OC)(c3cc4c(cc3OC)N(C)[C@H]3[C@@](O)(C(=O)OC)[C@H](OC(C)=O)[C@]5(CC)C=CCN6CC[C@]43[C@@H]65)C2)C1` [Vinblastine, reference compound]: in data set [3], the IC50 came out at 0.08 µM.

`COc1ccc(Nc2c3ccccc3nc3c(C)cccc23)cc1NC(=O)Nc1ccc(N(CCCl)CCCl)cc1` [BO-1154]: the IC50 is 0.07 µM in data set [1], 0.37 µM in data set [2], 0.01 µM in data set [3] and 0.01 µM in data set [4].

For `O=C(NNc1cc(-c2ccccc2)nc2ccccc12)Nc1ccc(N(CCCl)CCCl)cc1` [BO-1393], the IC50 in data set [1] was 1.26 µM; in data set [2] it was 1.78 µM; in data set [3] it was 0.91 µM; in data set [4], 0.58 µM.
